Molecular target: human recombinant ATX (Homo sapiens, UniProt Q13822)
Experiment: Enzyme inhibition test (choline release from LPC, Amplex UltraRed fluorescence)
Type: biochemical
Details: 200 μM LPC substrate, 1 hr at room temperature, read-out: Experimental Example 1 human ATX IC50
Method: [Enzyme Inhibition Test Method]
A mixture (10 μL) of substrate and a set of choline quantification reagents (200 μM LPC (1-Oleoyl-sn-glycero-3-phosphocholine Sigma #L1881), 25 μM Amplex UltraRed reagent (Invitrogen), 0.1 U/mL Peroxidase (TOYOBO), 1 U/mL Choline oxidase (TOYOBO)), prepared with assay buffer (50 mM Tris (pH 8.0), 140 mM NaCl, 5 mM KCl, 1 mM CaCl2, 1 mM MgCl2, 0.1% BSA (Albumin from bovine serum, SIGMA), 0.0025% Triton X-100), enzyme (0.4 ng/μL human recombinant ATX) (10 μL), compound-containing solution (100 nL) were dispensed to a 384-well plate, incubated at room temperature for 1 hr and the fluorescence (Ex. 525 nm/Em. 598 nm) was measured. As the standard, choline chloride was used. With a blank free of enzyme was taken as inhibitory rate 100%, and a control free of inhibitor as inhibitory rate 0%, the inhibitory rate was calculated, and IC50 value was calculated from the inhibitory activity percentage at each concentration.

| Structure (SMILES) | IC50 [nM] |
| --- | --- |
| Cc1ccc(C2CN(c3cncc(OC[C@H]4CC[C@H](C(F)(F)F)CC4)c3)CCO2)nc1C(=O)O (some centres unmarked) [Example 58] | 4 |
| O=C(O)CCCC1CCN(c2cncc(OCc3ccc(OC(F)(F)F)cc3)c2)C1 (centres unmarked) [Example 99] | 50 |
| COc1ccc(-c2cncc(/C=C/c3ccc(OC(F)(F)F)cc3)c2)nc1[C@H]1C[C@@H]1C(=O)O [Example 28] | 4 |
| Cc1ncc(C2CN(c3cncc(OC[C@H]4CC[C@H](C(F)(F)F)CC4)c3)CCO2)cc1C(=O)O (some centres unmarked) [Example 59] | 5 |
| O=C(O)c1ccc2c(c1)CCN2c1cncc(OCc2ccc(OC(F)(F)F)cc2)c1 [Example 36] | 6 |
| O=C(O)c1cncc(C2CN(c3cncc(OC[C@H]4CC[C@H](C(F)(F)F)CC4)c3)CCO2)c1 (some centres unmarked) [Example 52] | 7 |
| O=C(O)/C=C/C1CCCN1c1cncc(OCc2ccc(OC(F)(F)F)cc2)c1 (centres unmarked) [Example 101] | 113 |
| Cc1cnc(C2CN(c3cncc(OC[C@H]4CC[C@H](C(F)(F)F)CC4)c3)CCO2)cc1C(=O)O (some centres unmarked) [Example 61] | 15 |
| O=C(O)CC[C@H]1CN(c2cncc(OCC3CCN(CC(F)(F)F)CC3)c2)CCO1 [Example 70] | 135 |
| O=C(O)[C@H]1C[C@@H]1c1cc(-c2cnnc(OC[C@H]3CC[C@H](C(F)(F)F)CC3)c2)ccn1 [Example 10-1, (1S,2S)-2-[4-(6-{[trans-4-(trifluoromethyl)cyclohexyl]methoxy}pyridazin-4-yl)pyridin-2-yl]cyclopropanecarboxylic Acid] | 1 |
| COc1ccc(-c2cncc(OCc3ccccc3)c2)cc1C1CC1C(=O)O (centres unmarked) [Example 34] | 121 |
| O=C(O)c1ccc2c(c1)N(c1cncc(OCc3ccc(OC(F)(F)F)cc3)c1)CC2 [Example 37] | 8 |
| O=C(O)CC[C@H]1CN(c2cncc(OCc3ccc(Cl)cc3)c2)CCO1 [Example 78] | 91 |
| COc1ccc(-c2cnnc(COc3ccc(C(F)(F)F)cc3)c2)cc1[C@@H]1C[C@H]1C(=O)O (relative stereo) [Example 3, trans-2-[2-methoxy-5-(6-{[4-(trifluoromethyl)phenoxy]methyl}pyridazin-4-yl)phenyl]cyclopropanecarboxylic Acid] | 35 |
| COc1cc(C2CN(c3cncc(OC[C@H]4CC[C@H](C(F)(F)F)CC4)c3)CCO2)cnc1C(=O)O (some centres unmarked) [Example 53] | 1 |
| O=C(O)CC[C@H]1CN(c2cncc(OCC3CCC(F)(F)CC3)c2)CCO1 [Example 75] | 68 |
| COc1cc(C2CN(c3cncc(OC[C@H]4CC[C@H](C(F)(F)F)CC4)c3)CCO2)ncc1C(=O)O (some centres unmarked) [Example 54] | 5 |
| O=C(O)CCC1CCCN(c2cncc(OCc3ccc(OC(F)(F)F)cc3)c2)C1 (centres unmarked) [Example 91] | 24 |
| O=C(O)c1ccnc(C2CN(c3cncc(OC[C@H]4CC[C@H](C(F)(F)F)CC4)c3)CCO2)c1 (some centres unmarked) [Example 51] | 5 |
| Cc1cc(C2CN(c3cncc(OC[C@H]4CC[C@H](C(F)(F)F)CC4)c3)CCO2)ncc1C(=O)O (some centres unmarked) [Example 56] | 7 |
| COc1ccc(C2CN(c3cncc(OCC4CCN(CC(F)(F)F)CC4)c3)CCO2)cc1C(=O)O (centres unmarked) [Example 48] | 35 |
| Cc1cc(C2CN(c3cncc(OC[C@H]4CC[C@H](C(F)(F)F)CC4)c3)CCO2)cnc1C(=O)O (some centres unmarked) [Example 55] | 2 |
| O=C(O)COC[C@@H]1CCCN1c1cncc(OCc2ccc(OC(F)(F)F)cc2)c1 [Example 96] | 19 |
| O=C(O)CCCC1CN(c2cncc(OCc3ccc(OC(F)(F)F)cc3)c2)CCO1 (centres unmarked) [Example 94] | 32 |
| COc1ccc(-c2cncc(OCc3cccc(OC(F)(F)F)c3)c2)cc1C1CC1C(=O)O (centres unmarked) [Example 33] | 57 |
| O=C(O)c1ccc(C2CN(c3cncc(OCc4ccc(OC(F)(F)F)cc4)c3)CCO2)cc1 (centres unmarked) [Example 42] | 8 |
| O=C(O)CCC1CCCN1c1cncc(OCc2ccc(OC(F)(F)F)cc2)c1 (centres unmarked) [Example 100] | 204 |
| O=C(O)CC[C@H]1CN(c2cncc(OCC3CCC4(CCC4)CC3)c2)CCO1 [Example 72] | 8 |
| O=C(O)CC[C@H]1CN(c2cncc(OCc3ccc(F)cc3)c2)CCO1 [Example 77] | 381 |

From patent US11958812B2, “3, 5-disubstituted pyridine and 3, 5-disubstituted pyridazine derivatives and pharmaceutical use of same” (MITSUBISHI TANABE PHARMA CORPORATION, priority 2018, dated 2024)
